Assay results published in US10653138B2, “Composition for attracting bed bugs” (London School of Hygiene & Tropical Medicine, priority 2015, dated 2020).

Experiments:
[1] = tested on: bed bugs; settings: cited from earlier work; for attraction of bed bugs to safe shelters: volatile components of aggregation pheromone
[2] = tested on: bed bug antennae; test: Coupled gas chromatography-electroantennography (GC-EAG) of volatile extract from bed bug-exposed paper; set-up: species or system Cimex lectularius; settings: for Electrophysiology Auto method: bullet = marked under the Auto method; for Responses Total: males plus females, 20 insects tested; for Responses Females: number of females giving an EAG response to the peak; for Responses Females / Responses Males: volatile extract 1 μL; for Responses Males: number of males giving an EAG response to the peak; for electroantennogram (EAG) response: result in words; for Visual inspection (no of responses) >5 / Visual inspection (no of responses) >10 / Visual inspection (no of responses) >15: threshold of individuals responding; for Visual inspection (no of responses) Response: total EAG responses, Table 8
Source text: Experimental insects, unless otherwise stated, were mated males and females of C. lectularius that had been fed 7 to 14 days previously on heparinised sheep blood. The electrodes used to make recordings were Ag/AgCl wires (diameter 0.37 mm) inserted into glass pipettes, made from borosilicate glass capillaries (outer diameter 2.0 mm; inner diameter 1.16 mm). The glass pipettes were filled with Ringers solution (7.55 g NaCl, 0.64 g KCl, 0.22 g CaCl2, 1.73 g MgCl2 g, 0.86 g NaHCO3 and 0.61 g Na3PO4 L^−1 water). The bed bug was then chilled on ice for one minute before dissection. Preparations were held in a continuous, humidified, charcoal filtered air flow ([…]) coming from a glass tube, which was positioned 5 mm from the antennal preparation. Once the antennal preparation and EAG equipment were in position the microscope light was switched off.
The GC used was a HP-680N, containing a HP-1 column (30 m×0.32 mm; film thickness, 0.52 μm) with a COC injector, hydrogen carrier gas and a FID. The oven temperature was maintained at 40° C. for two min and then programmed at 5° C. min^−1 to 100° C. and then at 10° C. […] to 250° C. The end of the column was inserted into the centre of the main air flow so that the eluent went over the antennal preparation. […] Amplification of the signals was set at ×10,000. Signals were analysed using the computer-based software package, EAD 2000 (Syntech®, The Netherlands). The volatile extract (1 μL) from an air entrainment of bed bug-exposed papers (see Example 1) was injected onto the column. A solution of n-alkanes (C7-C25, 1 μL of 100 ng μL^−1) in hexane was also analysed to calculate the retention indices (RI) of any EAG-active peaks for comparison with GC and coupled GC-MS traces (Equation 1).
Electroantennographic (EAG) responses from the coupled gas chromatography-electroantennographic (GC-EAG) analysis of the volatile extract collected using air entrainment were determined by visual appearance. Coupled GC-EAG traces were examined visually on a light box to identify EAG responses and match them to peaks on the GC traces. A combination of characteristics including the amplitude and shape of the deflection from the baseline were used to identify EAG responses. For example, an EAG response is usually of greater amplitude than the background noise and it has a characteristic negative deflection followed by a quick positive deflection resulting in a short sharp response often of similar shape and position as the corresponding peak on the GC trace. Responses were matched between males and females separately onto master traces for each sex. The EAG-active peaks were labelled from 1 to 21. Male and female master traces were then overlaid to identify where consistent responses occurred in both sexes. Five or more individuals responding at the same retention time on the GC trace was considered to be a consistent EAG response and the corresponding peak on the GC trace was considered to be EAG-active. Three thresholds were used: greater than 5, greater than 10 or greater than 15 individuals responding to the same GC peak or at the same retention time. The traces were then subjected to manual or automated statistical analysis.

[3] = tested on: bed bugs; test: Behavioural bioassay, dose responses of individual chemicals (Example 8); type: in vivo, Cimex lectularius; settings: all doses 0.008× to 8000×
Method: Methods: The behavioural bioassay was as described by Weeks et al. 2011 and recorded using EthoVision and the methodology described by Weeks et al. 2013. For each chemical, (E)-2-octenal, (RS)-1-octen-3-ol and nonanal, seven doses were tested from 0.008× to 8000×, along with three controls. Each replicate was completed as a block of 10 treatments including: We are referring here to either 0.001×, 0.01×, 0.1×, 1×, 10×, 100× or 1000× the dose of (E)-2-octenal found naturally in the aggregation pheromone. For instance, an “8% solution” refers to an 8% dose of volatile extract (with the various different ratios of individual component). In each block the order of the treatments and the position of the odour pot were randomized. 10 blocks were completed for each chemical (n=10).

Row | SMILES | arrestment of bed bugs ([1]; less-volatile component) | Electrophysiology Auto method [2] | Responses Total [2] | Responses Females [2] | Responses Males [2] | electroantennogram (EAG) response [2] | Visual inspection (no of responses) >5 [2] | Visual inspection (no of responses) >10 [2] | Visual inspection (no of responses) Response [2] | Visual inspection (no of responses) >15 [2] | attraction of bed bugs to safe shelters [1] | time spent above the odour pot compared to zero [3]
1 | NCCc1c[nH]cn1 [histamine] | causes their arrestment upon contact | – | – | – | – | – | – | – | – | – | – | –
2 | CCCCCCC=O (single isomer, unassigned) [Heptanal, heptanal] | – | • | 13 | 7 | 6 | EAG-active | • (>5) | • (>10) | 13 | – | – | –
3 | CCCCCCCC=O (single isomer, unassigned) [Octanal, octanal] | – | • | 19 | 10 | 9 | EAG-active | • (>5) | • (>10) | 19 | • (>15) | – | –
4 | CC/C=C/C=C/C(C)=O (single isomer, unassigned) [(3E,5E)-Octadien-2-one, (3E,5E)-octadien-2-one] | – | • | 13 | 5 | 8 | EAG-active | • (>5) | • (>10) | 13 | – | – | –
5 | CC1=CCC2C(C1)C2(C)C (single isomer, unassigned) [3-Carene, 3-carene] | – | – | 11 | 7 | 4 | EAG-active | • (>5) | • (>10) | 11 | – | – | –
6 | CCCCCC=O (single isomer, unassigned) [Hexanal, hexanal] | – | – | 9 | 4 | 5 | EAG-active | • (>5) | – | 9 | – | – | –
7 | O=Cc1ccccc1 (single isomer, unassigned) [Benzaldehyde, benzaldehyde] | – | – | 8 | 3 | 5 | EAG-active | • (>5) | – | 8 | – | – | –
8 | CCCCCCCCC(=O)O [Nonanoic acid, nonanoic acid] | – | – | 12 | 6 | 6 | EAG-active | • (>5) | • (>10) | 12 | – | – | –
9 | CSSSC [dimethyl trisulfide] | – | – | – | – | – | – | – | – | – | – | attract bed bugs to safe shelters | –
10 | CCCCCCCCCC=O [Decanal, decanal] | – | – | 12 | 5 | 7 | EAG-active | • (>5) | • (>10) | 12 | – | – | –
11 | C=C1/C=C/[C@H](C(C)C)CC/C(C)=C/CC1 [(S)-(−)-Germacrene D, (S)-(−)-germacrene D] | – | – | 14 | 7 | 7 | EAG-active | • (>5) | • (>10) | 14 | – | – | –
12 | CCCCCCCC/C=C/C=O [(E)-2-Undecenal, (E)-2-undecenal] | – | – | 9 | 5 | 4 | EAG-active | • (>5) | – | 9 | – | – | –
13 | CCCCCCCCC(C)=O [2-Decanone, 2-decanone] | – | – | 9 | 4 | 5 | EAG-active | • (>5) | – | 9 | – | – | –
14 | CCCCCCCCCCCC [Dodecane, dodecane] | – | • | 16 | 8 | 8 | EAG-active | • (>5) | • (>10) | 16 | • (>15) | – | –
15 | CCCCC(C)=O [2-hexanone] | – | – | – | – | – | – | – | – | – | – | attract bed bugs to safe shelters | –
16 | CCC/C=C/C=O [(E)-2-hexenal] | – | – | – | – | – | – | – | – | – | – | attract bed bugs to safe shelters | –
17 | CCCCCC/C=C/C=O [(E)-2-Nonenal, (E)-2-nonenal] | – | • | 13 | 8 | 5 | EAG-active | • (>5) | • (>10) | 13 | – | – | –
18 | C=CC(O)CCCCC (racemic) [(RS)-1-Octen-3-ol, (RS)-1-octen-3-ol] | – | – | 11 | 7 | 4 | EAG-active | • (>5) | • (>10) | 11 | – | – | none of the (RS)-1-octen-3-ol doses resulted in significantly more
19 | CCCCOCCOCCOC(C)=O [2-(2-Butoxyethoxy)-acetate ethanol, 2-(2-butoxyethoxy)ethyl acetate] | – | – | 12 | 5 | 7 | EAG-active | • (>5) | • (>10) | 12 | – | – | –
20 | CSSC [dimethyl disulfide] | – | – | – | – | – | – | – | – | – | – | attract bed bugs to safe shelters | –
21 | C=C1C=CC(C(C)C)CC1 (single isomer, unassigned) [β-Phellandrene, β-phellandrene] | – | – | 11 | 6 | 5 | EAG-active | • (>5) | • (>10) | 11 | – | – | –
